SMILES strings stand for the structures. Like-named read-outs stand apart in the source and are kept apart here.

20 compounds from patent US20040248898A1, “Remedies for arteriosclerosis” (priority 2001, published 2004) can be followed below.

Assay [1] addresses T1, human group X sPLA2 (Homo sapiens, UniProt O15496).
T1 sequence (O15496 43-165): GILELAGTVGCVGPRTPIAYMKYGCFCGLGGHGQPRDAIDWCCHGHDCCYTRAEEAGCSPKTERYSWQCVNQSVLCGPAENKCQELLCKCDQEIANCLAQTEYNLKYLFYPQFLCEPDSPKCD
The assay can be described thus: Negative charge of isolated human lipoproteins (agarose gel electrophoresis) after group X sPLA2. Format: biochemical. Conditions: agent 10 μmol/L; LDL and HDL, 50 nmol/L sPLA2. As to the method:
LDL and HDL were isolated from human plasma by ultracentrifugation (Havel, et al., J. Clin. Invest. 34, 1345-1353 (1955)). Human group IB, IIA and X sPLA2s (50 nmol/L) and CuSO4 (20 μmol/L) were reacted with LDL and HDL (1 mg/ml) at 37° C. for 3, 6, and 24 hours in a solution containing 12.5 mmol/L Tris-HCL buffer (pH 8.0), 125 mg/L bovine serum albumin, and 1 mmol/L calcium chloride. Then, a 1 μg sample of LDL and a 2 μg sample of HDL were electrophoresed on agarose gel (Helena Laboratories, TITAN GEL Lipoprotein; 90V, 25 minutes). After the electrophoresis, the gel was dried at 50 to 60° C. for about 1 hour, stained with 6 ml of a stain solution (Helena Laboratories, Fat Red 7B agarose solution) for about 3 minutes, and then decolorized with 25 ml of a decolorizing solution (70% methanol). In the experiment for determining the activity of a sPLA2 inhibitor (indoxam), a COX inhibitor (indomethacin) or a 5-LOX inhibitor (AA-861), those agents were added to the reaction giving a final concentration of 10 μmol/L, virtually simultaneously with the addition of sPLA2.

Assay [2] addresses T1, human group X sPLA2. Description: Fatty acid release from isolated human lipoproteins induced by group X sPLA2. The note with it: agent 10 μmol/L, added with sPLA2; arachidonic acid from LDL (FIG. 2). Format: biochemical. As to the method: LDL and HDL were isolated from human plasma by ultracentrifugation (Havel, et al., J. Clin. Invest. 34, 1345-1353 (1955)). Human group IB, IIA and X sPLA2s (0.5 nmol/L to 500 nmol/L) were reacted with LDL and HDL (0.35-1 mg/ml) at 37° C. in a solution containing 12.5 mmol/L Tris-HCL buffer (pH 8.0), 125 mg/L bovine serum albumin, and 1 mmol/L calcium chloride. The fatty acids released from the lipoproteins were extracted according to the method of Dole (Dole, et al., J. Biol. Chem. 235, 2595-2599 (1960)), and were labeled with 9-anthryldiazomethane by the known method (Hanasaki, et al., J. Biol. Chem. 274, 34203-34211 (1999)). Then, the released fatty acids were determined by detecting fluorescence of the labeled products (fatty acids) eluted from high performance liquid chromatography (HPLC) on reverse-phase column (LichroCART 125-4 Superspher 100 RP-18 columnmol/Merck). In order to examine does-dependent release of fatty acids induced by each sPLA2, the lipoprotein was reacted with 0.5, 5, 50, and 500 nmol/L group X sPLA2, and 50 and 500 nmol/L group IB and IIA sPLA2 for 60 minutes. Further, in order to examine time-dependent fatty acid release induced by sPLA2, each 50 nmol/L sPLA2 was used, and the change in the release with time course was traced during the period time of 4 hours after the sPLA2 addition. In the experiment for determining the inhibitory activity of a sPLA2 inhibitor (indoxam; Yokota, et al., Biochim. Biophys. Acta 1438, 213-222 (1999)), a cyclooxygenase (COX) inhibitor (indomethacin) or a 5-lipoxygenase (5-LOX) inhibitor (AA-861; 2,3,5-trimethyl-6-(12-hydroxy-5,10-dodecadiynyl)-1,4-benzoquinone (Yoshimoto, et al., Biochem. Biophys. Acta. 713, 470-473 (1982)), those agents were added to the reaction giving a final concentration of 10 μmol/L, virtually simultaneously with the addition of sPLA2.

In assay [3] the target is T2, human group V sPLA2 (Homo sapiens, UniProt P39877).
T2 construct: made in house; host or cells: CHO cells, stably transfected (pSVL vector); culture supernatant used
T2 sequence (P39877 21-138): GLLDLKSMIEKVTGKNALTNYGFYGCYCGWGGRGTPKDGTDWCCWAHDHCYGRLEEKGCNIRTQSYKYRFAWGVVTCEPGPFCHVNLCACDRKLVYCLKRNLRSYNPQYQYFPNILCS
The assay can be described thus: Chromogenic assay for inhibitory activity, group V sPLA2 inhibition tests. Format: biochemical. From the text:
(§1) A. Preparation of Cells Expressing Human Group V or X sPLA2 and Preparation of the Culture Supernatant Thereof
(§2) cDNA sequence encoding human group V or X sPLA2 (Chen et al., J. Biol. Chem, 1994, 269, 2365-2368; and Cupillard et al., J. Biol. Chem, 1997, 272, 15745-15752) was inserted in forward direction downstream the promoter of an expression vector for mammal cells, pSVL SV40 Late Promoter Expression Vector (Amersham Pharmacia Biotech). The expression vector was transfected into CHO host cells using a Lipofect AMINE regent (Gibco BRL) according to the instructions of the manufacturer to provide CHO cells stably expressing human group V or X sPLA2. The cells were incubated in a-MEM medium containing 10% fetal calf serum for 3 days, and the culture supernatant was used to determine the activity of the enzymes.
(§3) B. Assay for Inhibitory Activity
(§4) The following chromogenic assay is used to identify and evaluate inhibitors of group V or X sPLA2. The assay has been adapted for high volume screening using 96 well microtiter plates. A general description of this assay is found in the article, “Analysis of Human Synovial Fluid Phospholipase A2 on Short Chain Phosphatidylcholine-Mixed Micelles: Development of a Spectrophotometric Assay Suitable for a Microtiterplate Reader”, by Laure. J. Reynolds, Lori L. Hughes and Edward A Dennis, Analytical Biochemistry, 204, pp 190-197, 1992.
(§5) A test compound (or a solvent blank) was added according to the predetermined arrangement of the plate, and diheptanoyl thio PC (1 mM) was reacted with human group V or X sPLA2 in the presence of Triton X-100 (0.3 mM), 5,5′-dithiobis-(2-nitrobenzoic acid) (125 μM) in a Tris buffer (25mM, pH7.3), CaCl2 (10 mM), KCl (100 mM), bovine serum albumin. Absorbance at 405 nm is read to estimate the inhibitory activity.
(§6) The reaction with human group V sPLA2 was performed in 40 μl/well at 40° C. for 45 minutes, and the reaction with human group X sPLA2 was performed in 15 μl/well at 40° C. for 30 minutes.

Assay [4] concerns the target T1, human group X sPLA2. Description: Chromogenic assay for inhibitory activity, group X sPLA2 inhibition tests. More on the design: made in house; host or cells: CHO cells, stably transfected (pSVL vector); culture supernatant used. Format: biochemical.
Text: as §1, §2, §3, §4, §5, §6

In assay [5] the test system is mouse peritoneal macrophages. The assay can be described thus: Uptake of LDL into mouse peritoneal macrophages induced by group X sPLA2 (Oil Red O stain). Format: cell-based. Conditions: agent 10 μmol/L; 0.2 mg/ml LDL, 50 nmol/L group X sPLA2, 48 hours. Here is the method: C57BL/6J mice (male, 8 weeks) were injected peritoneally with 2 ml of a 4% thioglycollate solution, and, 4 days later, the cells from the peritoneal fluids were harvested. The cells were plated on a chamber slide, and incubated for 2 hours in the presence of the serum-free medium (BIO […]: X-VIVO 15). Then, non-adherent cells were removed by the washing procedure to prepare peritoneal macrophages. The cells were added with 0.2 mg/ml LDL (Sigma) and 50 nmol/L group X PLA2, and incubated in the serum-free medium for 48 hours. Uptake of LDL into macrophages were confirmed by immobilizing the cells with 4% formaldehyde for 20 minutes, and then staining the lipids with an Oil Red O stain solution.

In assay [6] the target is T2, human group V sPLA2. Description: Fatty acid (linoleic acid) release from isolated human lipoproteins induced by group V sPLA2. The note with it: agent 10 μmol/L; from LDL (FIG. 8). Format: biochemical. As to the method:
LDL and HDL were isolated from human plasma by ultracentrifugation (Havel, et al., J. Clin. Invest. 34, 1345-1353 (1955)). […] Biol. Chem. 235, 2595-2599 (1960)). The fatty acids were labeled with 9-anthryldiazomethane by the known method ([…], et al., J. Biol. Chem. 274, 34203-34211 (1999)), and then were determined by detecting fluorescence of the labeled products (fatty acids) eluted from high performance liquid chromatography (HPLC) on reverse-phase column (LichroCART 125-4 Superspher 100 RP-18 column, Merck).

Assay [7] deals with T2, human group V sPLA2. Description: Degeneration (negative charge, agarose gel electrophoresis) of isolated human lipoproteins by group V sPLA2. The note with it: agent 10 μmol/L; LDL and HDL, 50 nmol/L sPLA2. Format: biochemical. As to the method:
LDL and HDL were isolated from human plasma by ultracentrifugation (Havel, et al., J. Clin. Invest. 34, 1345-1353 (1955)). Human group IIA and V sPLA2s (50 nmol/L) were reacted with LDL and HDL (1 mg/ml) at 37° C. for 3, 6, and 24 hours in a solution containing 12.5 mmol/L Tris-HCL buffer (pH 8.0), 125 mg/L bovine serum albumin, and 1 mmol/L calcium chloride, and then 1 μg of the LDL and 2 μg of the HDL were spotted on an agarose gel (Helena Laboratories, TITAN GEL Lipoprotein), followed by being electrophoresed at 90V for 25 minutes. After the electrophoresis, the gels were dried at 50 to 60° C. for about one hour, stained with 6 ml of a stain solution (Helena Laboratories, Fat Red 7B agarose solution) for about three minutes, and then decolorized with 25 ml of a decolorizing solution (70% methanol).

[8] abbreviates: diheptanoyl thio PC 1 mM, 40° C., 45 minutes, absorbance at 405 nm, read-out: IC50 group V sPLA2 inhibition.
The mark [9] stands for this setting: diheptanoyl thio PC 1 mM, 40° C., 30 minutes, absorbance at 405 nm, read-out: IC50 group X sPLA2 inhibition.

With `CC1=C(C)C(=O)C(CCCCC#CCCCC#CCO)=C(C)C1=O` [AA-861, 2,3,5-trimethyl-6-(12-hydroxy-5,10-dodecadiynyl)-1,4-benzoquinone], the “Effect on lipoprotein degeneration (increase in negative charge) induced by group X sPLA2” value on human group X sPLA2 [1] is recorded as “affected neither”. On human group X sPLA2 [2], the “Effect on fatty acid release induced by group X sPLA2” value is reported as “affected neither”.
In the case of `CCc1c(C(=O)C(N)=O)c2c(OCC(=O)O)nc(C)cn2c1Cc1cccc(-c2ccccc2)c1` [Compound 1], the IC50 – broadly, the midpoint of a concentration-inhibition curve – at human group V sPLA2 [3] (setting [8]) turned out to be 12 nM.
Take `CCc1c(C(=O)C(N)=O)c2c(OCC(=O)O)nc(C)cn2c1Cc1ccccc1Cc1ccccc1` [Compound 2]: the IC50 on human group V sPLA2 [3] (setting [8]) worked out at 13 nM.
The same measure, in the same setting: the result for `CCc1c(C(=O)C(N)=O)c2c(OCC(=O)O)nc(-c3ccccc3)cn2c1Cc1ccccc1` [Compound 3] reads 5 nM; that for `NC(=O)C1=CCCc2c1c1c(OCC(=O)O)cccn1c2Cc1ccccc1` [Compound 7], 2 nM.
Take `NC(=O)c1cccc2c1c1c(OCC(=O)O)cccc1n2CC1CCCCC1` [Compound 8]: the IC50 at human group X sPLA2 [4] (setting [9]) and at human group V sPLA2 [3] (setting [8]) was 3 nM in each case.
Consider `NC(=O)c1cccc2c1c1c(OCC(=O)O)cccc1n2Cc1cccc(Oc2ccccc2)c1` [Compound 9], for which the IC50 at human group X sPLA2 [4] (setting [9]) came to 13 nM; on human group V sPLA2 [3] (setting [8]) it was 1 nM.
In the case of `NC(=O)c1cccc2c1c1c(OCC(=O)O)ccc(F)c1n2Cc1ccccc1` [Compound 10], the IC50 at human group X sPLA2 [4] (setting [9]) was 12 nM; on human group V sPLA2 [3] (setting [8]), 7 nM.
With `NC(=O)c1cccc2c1c1c(OCC(=O)O)cc(-c3ccco3)cc1n2Cc1ccccc1` [Compound 11], on human group V sPLA2 [3] (setting [8]), the IC50 turned out to be 2 nM.
With `CCc1c(C(=O)C(N)=O)c2c(OCC(=O)O)nc(C)cn2c1Cc1ccc(-c2ccccc2)cc1` [Compound 12], at human group X sPLA2 [4] (setting [9]), the IC50 was found to be 16 nM.
Same read-out and setting: the result for `CCc1c(CC(N)=O)c2c(OCC(=O)O)nc(C)cn2c1Cc1ccc(F)cc1` [Compound 13] reads 19 nM.
Turning to `CCc1c(C(=O)C(N)=O)c2c(OCC(=O)O)nc(C)cn2c1Cc1ccccc1C1CCCC1` [Compound 14], the IC50 on human group X sPLA2 [4] (setting [9]) stood at 9 nM.
On the same count and under the same terms, the result for `CCCc1c(C(=O)C(N)=O)c2c(OCC(=O)O)nc(C)cn2c1Cc1ccc(F)cc1` [Compound 15] reads 17 nM.
As to `CCc1c(C(=O)C(N)=O)c2c(OCC(=O)O)cccc2n1Cc1ccccc1-c1ccccc1` [Compound 19], the IC50 on human group X sPLA2 [4] stood at 26 nM; on human group V sPLA2 [3] it was 6 nM.
Regarding `CCc1c(C(=O)C(N)=O)c2c(OCC(=O)O)nc(C)cn2c1Cc1ccccc1CC1CCCCC1` [Compound 20], the IC50 at human group V sPLA2 [3] (setting [8]) was found to be 11 nM.
Turning to `CCc1ccc(-c2ccccc2Cc2c(CC)c(C(=O)C(N)=O)c3c(OCC(=O)O)nc(C)cn23)s1` [Compound 21], on human group V sPLA2 [3] (setting [8]), the half-maximal inhibitory concentration (IC50) came out at 5 nM.
Regarding `CCc1c(C(=O)C(N)=O)c2c(OCC(=O)O)nc(C)cn2c1Cc1ccccc1-c1ccc(C)s1` [Compound 22], the IC50 at human group V sPLA2 [3] (setting [8]) stood at 13 nM.
For the compound `NC(=O)c1cccc2c1c1c(OCC(=O)O)cccc1n2Cc1ccccc1` [Compound 23], at human group V sPLA2 [3] (setting [8]), the IC50 was 8 nM.
For `CC(Cc1ccc(O)c(O)c1)C(C)Cc1ccc(O)c(O)c1` (centres unmarked) [NDGA], in assay [5], the “Effect on group X sPLA2-induced uptake of LDL into the cells” value was “affected neither”.
`COc1ccc2c(c1)c(CC(=O)O)c(C)n2C(=O)c1ccc(Cl)cc1` [indomethacin]: in assay [5], the “Effect on group X sPLA2-induced uptake of LDL into the cells” value was “affected neither”. The “Effect on linoleic acid release induced by group V sPLA2” value at human group V sPLA2 [6] is on record as “not affected”. Besides, the “Effect on lipoprotein degeneration (increase in negative charge) induced by group X sPLA2” value on human group X sPLA2 [1] was “affected neither”. Moreover, the “Effect on lipoprotein degeneration induced by group V sPLA2” value on human group V sPLA2 [7] is listed as “not affected”. At human group X sPLA2 [2], the “Effect on fatty acid release induced by group X sPLA2” value was “affected neither”.
